Test [1] relates to Murine primary aortic smooth muscle cells (SMC). Description: Murine primary aortic smooth muscle cell (SMC) migration, wounding assay. The class given is cell-based, mice. The settings on record: Mus musculus; inhibition of migration; compounds incubated 1.5 h, then CML-AGE (10 μg/ml) or PDGF-BB (10 ng/ml) for 4 h. The protocol: Murine SMCs were cultured from the aortas of 10-week old male mice as described in M. B. Manigrasso, J. Pan, V. Rai, J. Zhang, S. Reverdatto, N. Quadri, R. J. DeVita, R. Ramasamy, A. Shekhtman, A. M. Schmidt, Small Molecule Inhibition of Ligand-Stimulated RAGE-DIAPH1 Signal Transduction. Scientific reports 6, 22450 (2016). Wild-type murine aortic SMCs were isolated and used between passages 8 to 12. Migration in response to the RAGE ligand CML-AGE (CML, 10 μg/ml) or a general effector, not a RAGE ligand, PDGF-BB, 10 ng/ml (R&D systems) was assessed with a wounding assay as also described in M. B. Manigrasso, J. Pan, V. Rai, J. Zhang, S. Reverdatto, N. Quadri, R. J. DeVita, R. Ramasamy, A. Shekhtman, A. M. Schmidt, Small Molecule Inhibition of Ligand-Stimulated RAGE-DIAPH1 Signal Transduction. Scientific reports 6, 22450 (2016). Briefly, cells were grown to confluence in 24-well plates and starved overnight. The following morning, serum free media (SFM) was removed and compounds were added per dose response. Immediately following the addition of compounds, the monolayer was wounded using a p10 pipette tip. The compounds were allowed to incubate for 1.5 h. Following this incubation, all compounds were removed and fresh media containing RAGE ligand, CML-AGE (10 μg/ml), or general effector, PDGF-BB (10 ng/ml), was added for 4 h. Cells were maintained at 37° C. and 5% CO2. Images were taken at 4 h. Each image was measured, and an area ingrowth of effective migrating cells was calculated. Results are shown in FIGS. 12-20 and Table 2 below.

The target in a further test is T1, ctRAGE (Homo sapiens, UniProt Q15109).
T1 construct: The cytoplasmic domain of RAGE, C terminal RAGE or ctRAGE (RAGE tail)
T1 sequence (Q15109 364-404 limits assumed): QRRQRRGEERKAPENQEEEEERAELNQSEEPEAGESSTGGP
Description: Fluorescence binding titration assay (native tryptophan fluorescence). The following applies: 20 nM ctRAGE, 10 mM phosphate buffer pH 7.0, 5% DMSO. The protocol:
Native tryptophan fluorescence experiments were conducted using a Horiba Jobin Yvon Fluorolog spectrofluorometer. 1 mM of a compound was dissolved in 10 mM phosphate buffer [pH 7.0] and 50% DMSO. 20 nM ctRAGE solution was individually titrated from 0.1 nM-100 μM with the compounds in 100 μL of 10 mM phosphate buffer [pH 7.0] and 5% DMSO. The excitation and emission wavelengths were 280 nm and 352 nm, respectively. Dissociation constants, Kd, were estimated from the changes in peak fluorescence intensities as a function of the free compound concentration by using Prism 6 software (GraphPad). Data were fit to the equation, (F−F0)/Fmax=[compound]/(Kd+[compound]) where F is the fluorescence intensity at a given compound concentration, F0 is the fluorescence intensity of the blank, and Fmax is the maximum fluorescence intensity.

Another test concerns ob ob mice. Description: Wound healing of full thickness excisional wounds in ob ob mice. Format: in vivo. The settings on record: male and female ob ob mice; 5 mg/kg twice daily topical, day 3 through day 10; days 14 and 21 post-surgery. The protocol:
RAGE 406R was tested in male and female ob ob mice (model of obesity and type 2 diabetes) for potential benefits in wound healing. Full thickness excisional wounds were created on the backs of 8 week old ob ob mice, as described in Manigrasso et al., “Small-molecule antagonism of the interaction of the RAGE cytoplasmic domain with DIAPH1 reduces diabetic complications in mice,” Sci Transl Med. 13 (621):eabf7084 (2021). Beginning on day 3 after the surgery, mice received RAGE 406R (5 mg/kg) twice daily by topical administration under the Tegaderm through day 10 post-operatively. The wounds were photographed on days 0, 7, 14, and 21 and the % wound closure (compared to baseline) was calculated for each mouse. The Mean+/−Standard Error of the Mean is shown in FIGS. 23A-B along with representative images (FIGS. 23C-D).

Results on 12 molecules are retold here after patent US20260109684A1, “QUINOLINE COMPOUNDS AS MODULATORS OF RAGE ACTIVITY AND USES THEREOF” (NEW YORK UNIVERSITY, priority 2022, published 2026).

By IC50 is commonly meant the concentration that gives 50% inhibition. What is called Kd is the constant that tells how readily two partners part at equilibrium.

In test [1], `N#Cc1ccc2c(CN3CCOCC3)cc(-c3ccc(CCN)cc3)nc2c1` [RAGE 402, 2-(4-(2-aminoethyl)phenyl)-4-(morpholinomethyl)quinoline-7-carbonitrile] had an IC50 of 136 nM. The Kd on ctRAGE was found to be 3 nM.

On to `N#Cc1ccc2c(CN3CCOCC3)cc(-c3ccc([C@@H]4CCC(=O)N4)cc3)nc2c1` [RAGE 406S], for which, in test [1], it took 1160 nM to reach half-maximal inhibition (IC50). This molecule gave a dissociation constant (Kd) at ctRAGE of 2 nM.

For the molecule `CN(C)Cc1ccc(-c2cc(CN3CCOCC3)c3ccc(C#N)cc3n2)cc1` [RAGE 299], the 50% inhibitory concentration (IC50) in test [1] is 93 nM. For the same molecule, the Kd on ctRAGE amounted to 8 nM.

Take `N#Cc1ccc2c(CN3CCOCC3)cc(-c3ccc(C4CCC(=O)N4)cc3)nc2c1` (racemic) [RAGE 406]: the IC50 in test [1] stood at 28 nM. Further, the dissociation constant Kd at ctRAGE is 3 nM.

As to `N#Cc1ccc2c(CN3CCOCC3)cc(-c3ccc(C(=N)N)cc3)nc2c1` [RAGE 290], in test [1], the IC50 came to 6 nM. Moreover, the Kd at ctRAGE is 1 nM.

`N#Cc1ccc2c(CN3CCOCC3)cc(-c3ccc([C@H]4CCC(=O)N4)cc3)nc2c1` [RAGE 406R]: the 50% inhibitory concentration (IC50) in test [1] worked out at 1 nM. At ctRAGE, this molecule came in with a Kd of 0.6 nM. Also, the “% wound closure compared to vehicle-treated animals” value in the test on ob ob mice is “significantly higher wound closure”.

Consider `N#Cc1ccc2c(CN3CCOCC3)cc(-c3ccc(C(N)=O)cc3)nc2c1` [RAGE 283], for which half-maximal inhibition in test [1] (IC50) required 2.6 nM. At ctRAGE, this molecule came in with a Kd of 1 nM.

In test [1], `N#Cc1ccc2c(C(=O)N3CCOCC3)cc(-c3ccc(C4CCCN4)cc3)nc2c1` (centres unmarked) [RAGE 407] gave an IC50 of 153 nM. For the same molecule, on ctRAGE, binding was characterised by a dissociation constant (Kd) of 2 nM.

On ctRAGE, `N#Cc1ccc2c(CN3CCOCC3)cc(-c3ccc(CC(N)=O)cc3)nc2c1` [RAGE 291] had a dissociation constant Kd of 12 nM.

In turn, `N#Cc1ccc2c(CN3CCOCC3)cc(-c3ccc(CN4CCCC4)cc3)nc2c1` [RAGE 401] yielded an IC50 in test [1] of 905 nM.

Take `CC(=O)NCc1ccc(-c2cc(C(=O)N3CCOCC3)c3ccc(C#N)cc3n2)cc1` [RAGE 289, N-(4-(7-cyano-4-(morpholine-4-carbonyl)quinolin-2-yl)benzyl) acetamide]: the midpoint of inhibition in test [1], the IC50, lay at 18 nM. The molecule further displayed a Kd on ctRAGE of 3 nM.

In test [1], `N#Cc1ccc2c(CN3CCOCC3)cc(-c3ccc(CN)cc3)nc2c1` [RAGE 286, 2-(4-(aminomethyl)phenyl)-4-(morpholinomethyl)quinoline-7-carbonitrile] registered an IC50 of 270 nM. Moreover, on ctRAGE, binding was characterised by a dissociation constant (Kd) of 20 nM.
